From paper PMC5440000 (Clinical Interventions in Aging, 2017)

Target: Aβ42 (Homo sapiens, UniProt P05067)
Assay: Thioflavin T aggregation assay, […] h at […]°C
Type: biochemical

Chain of Aβ42 (P05067 672-713): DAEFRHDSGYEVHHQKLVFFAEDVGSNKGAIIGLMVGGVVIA

| Structure (SMILES) | IC50 [nM] |
| --- | --- |
| CC1=C(/C=C/C(C)=C/C=C/C(C)=C/C=C/C=C(C)/C=C/C=C(C)/C=C/C(=O)[C@]2(C)C[C@@H](O)CC2(C)C)C(C)(C)CCC1 [cryptocapsin] | 1970 |
| CC1=C(/C=C/C(C)=C/C=C/C(C)=C/C=C/C=C(C)/C=C/C=C(C)/C=C/C2=C(C)C[C@@H](O)CC2(C)C)C(C)(C)C[C@H](O)C1 [zeaxanthin] | 2290 |
